Results reported in patent US5444056A, “Aminoalkoxyphenyl derivatives, process for their preparation and compositions containing them” (Sanofi, priority 1989, dated 1995).
Counter-ions that a name gives are not always drawn.

Legend:
[1] = tested on: acceleration of the heart rate induced by isoprenaline (anti-β effect); assay: Anti-β effect: reduction of isoprenaline-induced acceleration of the heart rate in anesthetized atropinized dog; type: in vivo; set-up: key to Anti-β effect: +: for a reduction <50%; ++: for a reduction ≥50%; +++: for an almost complete reduction
Protocol: The aim of this test is to determine the capacity of the compounds of the invention to reduce the increase in blood pressure induced by epinephrine (anti-αeffect) and the acceleration of the heart rate induced by isoprenaline (anti-βeffect) in the dog previously anesthetized with pentobarbital and atropinized.
(§1) First, are determined for each dog the dose of epinephrine (between 3 and 10 μg/kg) which causes a reproducible increase in arterial blood pressure of about 133.10^2 Pa and the dose of isoprenaline (1 to 2 μg/kg) which causes a reproducible increase in the heart rate of about 70 beats/minute. The doses of epinephrine and isoprenaline thus determined are injected alternatively every ten minutes and after the two consecutive reference responses have been obtained, a quantity of the test compound is administered by the intravenous route.
The percentage reduction of the acceleration of the heart rate caused by the test compound compared with the reference tachycardia previously measured (about 70 beats) is recorded.
In both cases, the results of the reduction in arterial pressure and heart rate are expressed as follows: […]

[2] = tested on: increase in blood pressure induced by epinephrine (anti-α effect); assay: Anti-α effect: reduction of epinephrine-induced increase in blood pressure in anesthetized atropinized dog; type: in vivo; set-up: key: +: for a reduction <50%; ++: for a reduction ≥50%; +++: for an almost complete reduction
Protocol: as §1, with “The aim of this test is to determine the capacity of the compounds of the invention to reduce the increase in blood pressure induced by epinephrine (anti-αeffect) and the acceleration of the heart rate induced by isoprenaline (anti-βeffect) in the dog previously anesthetized with pentobarbital and atropinized. First,” for “First,”, “route. The percentage reduction of the hypertension caused by the test compound in comparison with the reference hypertension previously obtained (about 100 mm Hg) is recorded. In both cases, the results of the reduction in arterial pressure and heart rate are expressed as follows: […]” for “route.”

[3] = tested on: contractile response to potassium-induced depolarization on isolated rat aorta; assay: Calcium inhibitory properties: antagonism of contractile response to potassium-induced depolarization on isolated rat aorta; set-up: species or system rat (male Wistar); settings: percent of maximal contraction before incubation, 60 min
Description: It is well established that the depolarization of a smooth muscle membrane by potassium makes the latter permeable to extracellular calcium and induces muscle contraction. Consequently, the measurement of inhibition of the contractile response to depolarization by potassium or the measurement of relaxation of the tonic contraction on potassium depolarization can provide an evaluation of the potency of a compound as an inhibitor of the membrane permeability to Ca^++ ions. The technique used is the following: The aorta is removed from male Wistar rats weighing about 300 g and cut into strips approximately 40 mm long and 3 mm wide. These fragments are placed in a 25 ml isolated organ bath containing modified Krebs-bicarbonate solution (112 mM NaCL; 5 mM KCl; 25 mM NaHCO3; 1 mM KH2 PO4; 1.2 mM MgSO4; 2.5 mM CaCl2; 11.5 mM glucose, made up to 1000 ml with distilled water) maintained at 37° C. and through which a stream of carbon dioxide is passed. The preparation is connected to a force microsensor and the contractile response is recorded after amplification on a recorder. A tension of 2g is applied to the preparation. This latter is maintained in the modified Krebs-bicarbonate solution for 60 minutes, and then contractions are induced by replacing the Krebsbi-carbonate solution by a Krebs-potassium solution (17 mM NaCl; 100 mM KCl; 25 mM NaHCO3; 1 mM KH2 PO4; 1.2 mM MgSO4; 2.5 mM CaCl2; 11.5 mM glucose; made up to 1000 ml with distilled water). When the contractile response of the preparation has become reproducible, a given amount of the compound of the invention is introduced into the bath. Sixty minutes later a new spasm is induced by potassium depolarization. The results obtained on the aorta under investigation are then expressed in percent of the maximal contractional effect before incubation with the test substance. As examples, the following results were obtained, the compounds of formula (1) being in the form of the free base, the hydrochloride, oxalate or fumarate.

Row | Structure (SMILES) | inhibition in vivo at 0.035 mg/kg ([1]; Canis lupus familiaris, intravenous, 0,035 mg/kg) | Anti-α effect ([2]; intravenous, 0,035 mg/kg) | % maximal contractional effect ([3]; 10^-7 M, 0.1 µM) | % maximal contractional effect ([3]; 10^-8 M, 0.01 µM) | % maximal contractional effect ([3]; 10^-9 M, 0.001 µM) | % maximal contractional effect ([3]; 10^-10 M, 0.0001 µM) | Anti-β effect ([1]; intravenous, 0,05 mg/kg) | Anti-α effect ([2]; intravenous, 0,05 mg/kg) | Anti-β effect ([1]; intravenous, 0,013 mg/kg) | Anti-α effect ([2]; intravenous, 0,013 mg/kg) | inhibition in vivo at 0.013 mg/kg ([1]; Canis lupus familiaris, intravenous, 0,013 mg/kg)
1 | COc1ccc2c(c1)c(C(C)C)c(S(=O)(=O)c1ccc(OCCCN(C)CCc3ccc(OC)c(OC)c3)cc1)n2C [Ex. 61, 2-{4-[3-(N-methyl N-3,4-dimethoxy-β-phenethylamino)propoxy]benzenesulfonyl} 3-isopropyl 5-methoxy 1-methyl indole hydrogen fumarate] | ≥ 50% | +++ | 15,7% | 31,2% | 71,4% | 89,5% |  |  |  |  | 
2 | CCCCN(CCCC)CCCOc1ccc(S(=O)(=O)c2c(C(C)C)n(C)c3cccc(C)c23)cc1.O=C(O)C(=O)O [Ex. 66, 3-{4-[3-(di-n-butylamino)propoxy]benzenesulfonyl} 2-isopropyl 1,4-dimethyl indole hydrogen oxalate] |  |  | 7,1% | 37,1% | 83,1% |  | +++ | +++ |  |  | 
3 | COc1cc(CCN(C)CCCOc2ccc(S(=O)(=O)c3c(C(C)C)cn4cccc(C)c34)cc2)cc(OC)c1 [Ex. 76, 1-{4-[3-(N-methyl N-3,5-dimethoxy-β-phenethylamino)propoxy]benzenesulfonyl} 2-isopropyl 8-methyl indolizine] |  |  |  | 12,7% | 41,8% | 64,1% |  |  | +++ | +++ | 
4 | COc1ccc(CCN(C)CCCOc2ccc(S(=O)(=O)c3c(C(C)C)cn4cccc(C)c34)cc2)cc1OC [Ex. 15, 2-isopropyl 8-methyl 1-{4-[3-(N-methyl N-3,4-dimethoxy-β-phenethylamino)propoxy]benzenesulfonyl}indolizine hydrogen oxalate] |  |  |  | 11,1% | 41,0% | 85,2% |  |  |  | ++ (for a reduction ≥50%) | < 50%
